How the values were obtained:
[1] = target: T1, Substance-K receptor (Homo sapiens, UniProt P21452); assay type: cell membranes, CHO, Membrane; details: cho; note: in other assays of this panel Not Active means under 50% inhibition at 10 µM
T1 sequence (P21452 whole entry): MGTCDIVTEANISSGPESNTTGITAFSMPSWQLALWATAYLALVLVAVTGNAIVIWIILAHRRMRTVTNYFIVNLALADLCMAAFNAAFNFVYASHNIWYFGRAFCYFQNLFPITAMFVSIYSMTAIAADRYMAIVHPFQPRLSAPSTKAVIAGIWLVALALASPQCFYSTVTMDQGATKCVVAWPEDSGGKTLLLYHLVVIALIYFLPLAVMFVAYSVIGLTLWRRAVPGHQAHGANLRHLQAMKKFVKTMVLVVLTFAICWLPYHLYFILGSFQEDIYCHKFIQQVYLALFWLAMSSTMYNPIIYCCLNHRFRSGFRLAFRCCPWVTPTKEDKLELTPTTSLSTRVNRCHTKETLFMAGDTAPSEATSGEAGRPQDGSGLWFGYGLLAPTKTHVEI

[2] = target: C-C chemokine receptor type 5 (Homo sapiens, UniProt P51681); assay type: cell membranes, Membrane; details: hek293; note: in other assays of this panel Not Active means under 50% inhibition at 10 µM
[3] = target: T2, Muscarinic acetylcholine receptor M5 (Homo sapiens, UniProt P08912); assay type: cell membranes, Membrane; details: cho-k1; note: in other assays of this panel Not Active means under 50% inhibition at 10 µM
T2 sequence (P08912 whole entry): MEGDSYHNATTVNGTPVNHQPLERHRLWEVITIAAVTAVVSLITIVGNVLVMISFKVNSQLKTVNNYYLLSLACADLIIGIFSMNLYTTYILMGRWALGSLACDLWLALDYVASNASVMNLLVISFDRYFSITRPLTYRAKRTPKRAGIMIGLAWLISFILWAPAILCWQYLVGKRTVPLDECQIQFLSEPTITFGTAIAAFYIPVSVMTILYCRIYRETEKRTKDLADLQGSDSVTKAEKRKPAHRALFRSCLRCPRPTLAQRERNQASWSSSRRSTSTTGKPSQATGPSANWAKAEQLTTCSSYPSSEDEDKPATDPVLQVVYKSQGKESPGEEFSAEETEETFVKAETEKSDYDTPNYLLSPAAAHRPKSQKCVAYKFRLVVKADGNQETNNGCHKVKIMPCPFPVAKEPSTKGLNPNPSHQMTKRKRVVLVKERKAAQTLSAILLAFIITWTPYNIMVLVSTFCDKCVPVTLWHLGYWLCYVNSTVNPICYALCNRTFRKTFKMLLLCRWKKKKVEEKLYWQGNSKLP

[4] = DRUGMATRIX: Platelet-Derived Growth Factor (PDGF) radioligand binding (ligand: [125I] PDGF); assay type: cell-based; details: nih3t3; Not Active = under 50% inhibition at 10 µM
[5] = target: Tyrosine-protein kinase Fyn (Homo sapiens, UniProt P06241); assay: biochemical; assay type: cell-based, Insect cells; details: insect cells;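 note: enzymatic inhibition of Fyn kinase activity measured with Poly(Glu:Tyr) as the phosphorylation substrate; in other assays of this panel Not Active means under 50% inhibition at 10 µM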
[6] = target: T3, 5-hydroxytryptamine receptor 1A (Rattus norvegicus, UniProt P19327); assay type: cell membranes, CHO-K1, Membrane; note: in other assays of this panel Not Active means under 50% inhibition at 10 µM
T3 sequence (P19327 whole entry): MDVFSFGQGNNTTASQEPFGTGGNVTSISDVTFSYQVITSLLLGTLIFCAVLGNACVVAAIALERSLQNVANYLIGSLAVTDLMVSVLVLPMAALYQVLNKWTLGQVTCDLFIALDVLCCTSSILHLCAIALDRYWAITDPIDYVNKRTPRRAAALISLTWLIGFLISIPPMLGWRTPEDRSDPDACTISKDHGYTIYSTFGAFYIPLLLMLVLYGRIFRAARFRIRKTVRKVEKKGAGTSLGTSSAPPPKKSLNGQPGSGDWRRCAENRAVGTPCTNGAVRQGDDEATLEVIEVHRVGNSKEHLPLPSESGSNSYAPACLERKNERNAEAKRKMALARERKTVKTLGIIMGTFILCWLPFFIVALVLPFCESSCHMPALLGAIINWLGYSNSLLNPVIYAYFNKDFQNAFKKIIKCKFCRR

[7] = target: Cytochrome P450 3A4 (Homo sapiens, UniProt P08684); details: bti-tn-5b1-4; note: in other assays of this panel Not Active means under 50% inhibition at 10 µM
Cytochrome P450 3A4, sequence (P08684 whole entry): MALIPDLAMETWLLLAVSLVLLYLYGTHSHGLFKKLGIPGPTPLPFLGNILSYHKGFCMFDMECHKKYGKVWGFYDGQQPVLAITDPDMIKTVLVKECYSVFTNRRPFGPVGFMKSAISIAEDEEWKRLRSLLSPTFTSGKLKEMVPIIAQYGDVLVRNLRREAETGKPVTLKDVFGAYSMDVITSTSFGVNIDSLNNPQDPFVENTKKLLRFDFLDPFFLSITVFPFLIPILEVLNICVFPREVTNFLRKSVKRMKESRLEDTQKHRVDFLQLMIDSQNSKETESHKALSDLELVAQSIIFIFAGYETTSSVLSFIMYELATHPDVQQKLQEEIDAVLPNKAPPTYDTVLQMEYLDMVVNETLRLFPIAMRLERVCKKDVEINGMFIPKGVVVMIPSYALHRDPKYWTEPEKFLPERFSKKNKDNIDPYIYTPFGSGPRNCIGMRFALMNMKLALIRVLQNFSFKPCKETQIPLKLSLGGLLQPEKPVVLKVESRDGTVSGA

C-C chemokine receptor type 5, sequence (P51681 whole entry): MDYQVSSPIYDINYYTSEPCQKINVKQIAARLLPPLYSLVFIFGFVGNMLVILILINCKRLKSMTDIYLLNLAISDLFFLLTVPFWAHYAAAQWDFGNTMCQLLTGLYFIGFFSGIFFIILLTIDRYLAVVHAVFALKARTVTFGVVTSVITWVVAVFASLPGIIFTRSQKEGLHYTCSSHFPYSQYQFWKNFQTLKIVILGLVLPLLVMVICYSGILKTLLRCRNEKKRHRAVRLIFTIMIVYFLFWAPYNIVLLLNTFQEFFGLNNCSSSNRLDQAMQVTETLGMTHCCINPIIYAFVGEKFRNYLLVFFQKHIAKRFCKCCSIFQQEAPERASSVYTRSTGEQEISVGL
Tyrosine-protein kinase Fyn, sequence (P06241 whole entry): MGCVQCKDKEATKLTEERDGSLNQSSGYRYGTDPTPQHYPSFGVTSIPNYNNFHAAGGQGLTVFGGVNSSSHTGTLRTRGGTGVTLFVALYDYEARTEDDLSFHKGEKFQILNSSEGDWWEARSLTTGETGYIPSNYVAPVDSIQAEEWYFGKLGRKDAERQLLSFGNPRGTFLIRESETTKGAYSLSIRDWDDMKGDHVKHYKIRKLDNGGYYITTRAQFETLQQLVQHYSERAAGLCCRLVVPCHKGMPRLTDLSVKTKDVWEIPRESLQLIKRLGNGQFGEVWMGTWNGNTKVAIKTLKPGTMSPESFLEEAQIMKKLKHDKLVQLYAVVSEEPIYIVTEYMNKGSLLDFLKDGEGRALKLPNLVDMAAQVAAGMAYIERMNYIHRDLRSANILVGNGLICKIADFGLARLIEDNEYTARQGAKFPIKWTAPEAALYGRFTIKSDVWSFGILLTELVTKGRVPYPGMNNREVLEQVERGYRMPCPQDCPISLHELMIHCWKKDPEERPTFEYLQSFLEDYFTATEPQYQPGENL

Compound	IC50 [1]	IC50 [2]	IC50 [3]	IC50 [4]	Ki [4]	IC50 [5]	IC50 ([6]; cho-k1)	IC50 [7]	Ki [7]	IC50 ([6]; read-out: IC50) [nM]	Ki ([6]; read-out: Ki) [nM]
CCC(=O)O[C@H]1[C@H](O[C@@H]2[C@@H](C)[C@H](O[C@H]3C[C@@](C)(OC)[C@@H](O)[C@H](C)O3)[C@@H](C)C(=O)O[C@H](CC)[C@@](C)(O)[C@H](O)[C@@H](C)C(=O)[C@H](C)C[C@@]2(C)O)O[C@H](C)C[C@@H]1N(C)C [ERYTHROMYCIN PROPIONATE]	Not Active	Not Active	Not Active	Not Active	Not Active	Not Active	Not Active	Not Active	Not Active	–	–
C=C(CC)C(=O)c1ccc(OCC(=O)O)c(Cl)c1Cl [ETHACRYNIC ACID]	Not Active	Not Active	Not Active	Not Active	Not Active	Not Active	Not Active	Not Active	Not Active	–	–
C#C[C@]1(O)CC[C@H]2[C@@H]3CCc4cc(O)ccc4[C@H]3CC[C@@]21C [ETHINYL ESTRADIOL]	Not Active	Not Active	Not Active	Not Active	Not Active	Not Active	Not Active	Not Active	Not Active	–	–
OCCO [ETHYLENE GLYCOL]	Not Active	Not Active	Not Active	Not Active	Not Active	Not Active	Not Active	Not Active	Not Active	–	–
CC(=O)OCC(CCn1cnc2cnc(N)nc21)COC(C)=O [FAMCICLOVIR]	Not Active	Not Active	Not Active	Not Active	Not Active	Not Active	Not Active	Not Active	Not Active	–	–
O=C(O)Cc1ccc(-c2ccccc2)cc1 [FELBINAC]	Not Active	Not Active	Not Active	Not Active	Not Active	Not Active	Not Active	Not Active	Not Active	–	–
CC(C(=O)O)c1ccc(-c2ccccc2)c(F)c1 (stereo not drawn) [FLURBIPROFEN]	Not Active	Not Active	Not Active	Not Active	Not Active	Not Active	Not Active	Not Active	Not Active	–	–
NC[C@@H]1O[C@H](O[C@H]2[C@@H](O)[C@H](O[C@@H]3[C@@H](O)[C@H](N)C[C@H](N)[C@H]3O[C@H]3O[C@H](CN)[C@@H](O)[C@H](O)[C@H]3N)O[C@@H]2CO)[C@H](N)[C@@H](O)[C@@H]1O [FRAMYCETIN]	Not Active	Not Active	Not Active	Not Active	Not Active	Not Active	Not Active	Not Active	Not Active	–	–
C[C@H]([C@](O)(Cn1cncn1)c1ccc(F)cc1F)S(C)(=O)=O [GENACONAZOLE]	Not Active	Not Active	Not Active	Not Active	Not Active	Not Active	Not Active	Not Active	Not Active	–	–
Cc1c(F)c(N2CCNC(C)C2)cc2c1c(=O)c(C(=O)O)cn2C1CC1 (stereo not drawn) [GREPAFLOXACIN]	Not Active	Not Active	Not Active	Not Active	Not Active	Not Active	Not Active	Not Active	Not Active	–	–
N=C(N)N/N=C/c1c(Cl)cccc1Cl [GUANABENZ]	Not Active	Not Active	Not Active	Not Active	Not Active	Not Active	–	Not Active	Not Active	2070	1180
C[C@]12CCC(=O)C=C1CC[C@@H]1[C@@H]2[C@@H](O)C[C@@]2(C)[C@H]1CC[C@]2(O)C(=O)CO [HYDROCORTISONE]	Not Active	Not Active	Not Active	Not Active	Not Active	Not Active	Not Active	Not Active	Not Active	–	–
NC[C@H]1O[C@H](O[C@H]2[C@H](O)[C@@H](O[C@H]3O[C@H](CO)[C@@H](O)[C@H](N)[C@H]3O)[C@H](N)C[C@@H]2N)[C@H](O)[C@@H](O)[C@@H]1O [KANAMYCIN]	Not Active	Not Active	Not Active	Not Active	Not Active	Not Active	Not Active	Not Active	Not Active	–	–
CC(C(=O)O)c1ccc(CC2CCCC2=O)cc1 (stereo not drawn) [LOXOPROFEN]	Not Active	Not Active	Not Active	Not Active	Not Active	Not Active	Not Active	Not Active	Not Active	–	–
Cc1cccc(Nc2ccccc2C(=O)O)c1C [MEFENAMIC ACID]	Not Active	Not Active	Not Active	Not Active	Not Active	Not Active	Not Active	Not Active	Not Active	–	–
CC(=O)O[C@]1(C(C)=O)CC[C@H]2[C@@H]3C=C(C)C4=CC(=O)CC[C@]4(C)[C@H]3CC[C@@]21C [MEGESTROL ACETATE]	Not Active	Not Active	Not Active	Not Active	Not Active	Not Active	Not Active	Not Active	Not Active	–	–
COc1ccccc1OCC(O)COC(N)=O (stereo not drawn) [METHOCARBAMOL]	Not Active	Not Active	Not Active	Not Active	Not Active	Not Active	Not Active	Not Active	Not Active	–	–
CN(Cc1cnc2nc(N)nc(N)c2n1)c1ccc(C(=O)N[C@@H](CCC(=O)O)C(=O)O)cc1 [METHOTREXATE]	Not Active	Not Active	Not Active	Not Active	Not Active	Not Active	Not Active	Not Active	Not Active	–	–
COC(=O)c1ccccc1O [METHYL SALICYLATE]	Not Active	Not Active	Not Active	Not Active	Not Active	Not Active	Not Active	Not Active	Not Active	–	–
COc1ccc2cc(CCC(C)=O)ccc2c1 [NABUMETONE]	Not Active	Not Active	Not Active	Not Active	Not Active	Not Active	Not Active	Not Active	Not Active	–	–
O=C(O)c1cccnc1 [NIACIN]	Not Active	Not Active	Not Active	Not Active	Not Active	Not Active	Not Active	Not Active	Not Active	–	–
CNC(=C[N+](=O)[O-])NCCSCc1csc(CN(C)C)n1 [NIZATIDINE]	Not Active	Not Active	Not Active	Not Active	Not Active	Not Active	Not Active	Not Active	Not Active	–	–
C[C@]12C/C(=C/O)C(=O)C[C@@H]1CC[C@@H]1[C@@H]2CC[C@@]2(C)[C@H]1CC[C@]2(C)O [OXYMETHOLONE]	Not Active	Not Active	Not Active	Not Active	Not Active	Not Active	Not Active	Not Active	Not Active	–	–
